Assay results as given in US9988355B2, “Form A of mesylate for nicotinamide derivatives and preparation method and application thereof” (SHANGHAI SUNTRONG BIOTECHNOLOGY CO., LTD., priority 2014, dated 2018).
Counter-ions that a name gives are not always drawn.

How the values were obtained:
Type in all cases: physicochemical
[1] = Stability comparison of different crystal forms determined by HPLC, 6 months
Method: Embodiment 16. Stability Comparison of Different Crystal Forms Determined by HPLC
The form A of mesylate for niacinamide derivatives prepared according to the method of the embodiment 4 and the mesylate needles of nicotinamide derivatives prepared according to the method of the embodiment 10 were respectively put in the environment with light, high humidity (relative humidity (RH) is 90%), room temperature and high temperature (60° C.) for 6 months, the contents of related substances of the sample were determined by adopting HPLC, and examination results were shown in Table 2. HPLC testing conditions: chromatographic column Venusil MP-C18 (4.6 mm×250 mm, 5 μm, 100 Å); Mobile phase A: 0.1% acetum, B: acetonitrile, gradient conditions (0 min, 95% A; 20 min, 5% A; 25 min, 5% A; 30 min, 95% A); Detection wavelength 254 nm; Flowing speed 1 ml/min; Column temperature 30° C.; Sample amount 20 μl.

[2] = Solubility comparison of different crystal forms in water and ethanol
From the text: Embodiment 15. Solubility Comparison of Different Crystal Forms
The form A of mesylate for niacinamide derivatives prepared according to the method of the embodiment 4 and the needle solid of nicotinamide derivatives mesylate prepared according to the method of the embodiment 10 were respectively dissolved in water and ethanol, and solubility results were shown in Table 1.

[3] = Hygroscopicity determination by TGA after storage at room temperature, humidity 40%
Method: Embodiment 11. Hygroscopicity Determination of the Contrast Needles Shape Solid of Nicotinamide Derivatives Mesylate
The obtained compound referred in a Chinese patent CN101676267 was 180.2 g of white needle-like crystals (0.365 mol) with the molecular weight being 493.5. It can thus be seen that the contrast needles shape solid of nicotinamide derivatives mesylate was anhydrate. The white needles of nicotinamide derivatives mesylate were prepared according to the method of […], and a DSC-TGA pattern of the needles as shown in FIG. 2 was obtained. Wherein, the testing conditions of differential scanning calorimetry (DSC) were 10° C./min with range of 30-300° C., and TGA testing conditions were 10° C./min from room temperature to 350° C. A proper amount of the needle samples of nicotinamide derivatives mesylate were placed at the room temperature under the humidity condition of 40%, and TGA detection was conducted on the solid respectively at the time intervals of 24 hours, 48 hours and 72 hours.

[4] = Stability comparison of different crystal forms by solid-state representation means (XRPD), 6 months
Method: Embodiment 17. Stability Comparison of Different Crystal Forms Determined by Adopting Solid-State Representation Means
The form A of mesylate for niacinamide derivatives prepared according to the method of the embodiment 4 and the needles solid of nicotinamide derivatives mesylate prepared according to the method of the embodiment 10 were respectively put in the environment with light, high humidity (relative humidity (RH) is 90%), room temperature and high temperature (60° C.) for 6 months, XRPD determination was performed by adopting a solid-state representation means, and examination results were shown in Table 3.

[5] = High-temperature, high-humidity and light stability of the crystal form, XRPD after 5 days
Method: Embodiment 14. Determination of High-Temperature Stability, High-Humidity Stability and Light Stability of the Mesylate Crystal Form A of Nicotinamide Derivatives of the Present Invention
The mesylate crystal form A of nicotinamide derivatives prepared according to the method of the embodiment 4 was tested.
(1) High-Temperature Stability
(2) High-Humidity Stability

Contents of related substances of the sample by HPLC ([1]; 60° C. for 6 months) | Contents of related substances of the sample by HPLC ([1]; Illuminating for 6 months) | Contents of related substances of the sample by HPLC ([1]; RH90% for 6 months) | Contents of related substances of the sample by HPLC ([1]; Room temperature for 6 months) | Water solubility [2] | Hygroscopicity (conclusion in words) ([3]; 24-72 hours) | TGA weight loss after storage under humidity ([3]; 24 hours) | TGA weight loss after storage under humidity ([3]; 48 hours) | TGA weight loss after storage under humidity ([3]; 72 hours) | Crystal form after storage (XRPD) ([4]; 60° C. for 6 months) | Crystal form after storage (XRPD) ([4]; Illuminating for 6 months) | High-temperature stability (XRPD compared with FIG. 1) ([5]; airtight drying oven of 60° C.) | Light stability (XRPD compared with FIG. 1) ([5]; transparent container, light 4500 lux) | Crystal form after storage (XRPD) ([4]; RH90% for 6 months) | Crystal form after storage (XRPD) ([4]; Room temperature for 6 months) | SMILES | High-humidity stability (XRPD compared with FIG. 1) ([5]; airtight container, humidity 92.5%)
98.2% | 99.4% | 98.8% | 99.2% | Insoluble | a certain hygroscopicity | 3.311% | 3.191% | 3.332% | Unchanged | Unchanged | – | – | – | – | N#CC1(c2ccc(NC(=O)c3cccnc3NCc3ccncc3)cc2)CCCC1 [Contrast needles, N-[4-(1-cyanocyclopentyl)phenyl]-2-(4-pyridylmethyl) amidogen-3-pyridineethanamine] | –
98.1% | 99.6% | 98.5% | 99.4% | Insoluble | – | – | – | – | Unchanged | Unchanged | good high-temperature stability | good light stability | Unchanged | Unchanged | N#CC1(c2ccc(NC(=O)c3cccnc3NCc3ccncc3)cc2)CCCC1 [The form A of mesylate for niacinamide derivatives of the pr] [N-[4-(1-cyanocyclopentyl)phenyl]-2-(4-pyridylmethyl) amidogen-3-pyridineethanamine] | good stability in a high-humidity environment
